According to patent EP4759814A1, “TRICYCLIC COMPOUND AND USE THEREOF AS MAT2A INHIBITOR” (SK Biopharmaceuticals Co., Ltd., priority 2023, dated 2025):

Key:
MAT2A = molecular target: T1, MAT2A (Homo sapiens, UniProt P31153); test: MAT2A inhibitory activity, colorimetric phosphate detection (PiColorLock) enzyme assay; format: biochemical; conditions: Test Condition 1 or 2 (not stated which per compound); absorbance at 630 nm
T1 construct: purchased BPS Bioscience (USA) 71401
Method: In vitro assay: Methionine and adenosine triphosphate (ATP) are converted into S-adenosylmethionine (SAM) and inorganic phosphate (pi) via the catalytic action of methionine adenosyltransferase 2A (MAT2A). The produced pi is detected by the PiColorLock™ Phosphate Detection Reagent, which is a colorimetric assay, and the activity of MAT2A can be evaluated according to the amount of pi generated during the enzyme reaction. Each compound was evaluated under Test Condition 1 or 2 as described below.
• Concentration of MAT2A inhibitor: maximum concentration of 50 µM, 5-fold dilution (7 groups in total) • MAT2A concentration: 12 ng/µL • ATP and Met concentration: 100 µM, 80 µM
• Concentration of MAT2A inhibitor: maximum concentration of 1 µM, 3-fold dilution (7 groups in total) • MAT2A concentration: 4 ng/µL • ATP and Met concentration: 300 µM, 150 µM • Reagents: Methionine (catalog number M5308) and ATP (catalog number A2383) were purchased from Sigma-Aldrich (USA). MAT2A (catalog number 71401) was purchased from BPS Bioscience (USA), and PiColorLock™ Phosphate Detection Reagent (catalog number 303-0030) was purchased from Novus (USA).
Assay buffer composition: 50 mM Tris-HCl pH 8.0, 50 mM KCI, 15 mM MgCl2, 0.3 mM EDTA, 0.005 % (w/v) BSA
Experimental procedure: Each compound was diluted 5-fold or 3-fold based on the maximum concentration (5 mM or 1 mM or 0.1 mM) using DMSO. The diluted compounds were diluted 20-fold using assay buffer, and then mixed at a volume ratio of 1:2 with MAT2A (30 ng/µL or 10 ng/µL) diluted with assay buffer and treated for 30 minutes at room temperature. The negative control group is a group untreated with both the MAT2A enzyme and the compound according to an embodiment of the present application, and the positive control group is a group treated only with the MAT2A enzyme and untreated with the compound according to an embodiment of the present application.
In each well of a 384-well plate, 30 µL of the mixed solution and 20 µL of a 1:1 mixed solution of ATP (0.5 mM or 1.5 mM) and Met (0.4 mM or 0.75 mM) were mixed and then treated for 1 hour at room temperature. After the enzyme reaction, 13 µL of a 100:1 mixed solution of PiColorLockTM and Accelerator was treated in each well and reacted for 5 minutes at room temperature. After treating 5 µL of Stabilizer in each well and reacting for 25 minutes at room temperature, the absorbance at 630 nm was measured using SpectraMax M4 (Molecular Devices, USA) to calculate the IC50 value of the compound.
Analysis method: The enzyme activity (%) of each experimental group was calculated as {(average O.D. of compound-treated group - average O.D. of negative control group)/(average O.D. of positive control group - average O.D. of negative control group)} * 100. After preparing a dose-response curve (4-parameter) using the enzyme activity according to the treatment concentration of each compound in GraphPad Prism 9, the 50 % of enzyme inhibitory activity value (IC50) was calculated through non-linear regression analysis. The IC50 results measured for the MAT2A activity inhibitory ability of the compounds according to an embodiment of the present application are shown in Table 2 (+++: more than 1 to 100 nM, ++: more than 100 to 1,000 nM, +: more than 1,000 to 10,000 nM, -: more than 10,000 nM).

[1] = tested on: HCT116 (MTAP del) cell line; test: Cell proliferation inhibition in MTAP-deficient cancer cells, WST-1 assay; format: cell-based; conditions: Homo sapiens, HCT-116, 120 hours of drug treatment, maximum concentration 10 µM, read-out: HCT116 MTAP^-/- (IC50, cell proliferation inhibited by 50%)
Method: (§1) The HCT116 (MTAP del) cell line, which is a colorectal cancer cell line with deletion of MTAP gene, was treated with a compound according to an embodiment of the present application as a MAT2A inhibitor, and after culturing for 120 hours, the change in the number of cells was measured with a WST-1 assay reagent. The WST-1 assay is an assay that measures the number of cells by measuring the generation of a chromogenic substance called formazan from tetrazolium salts by intracellular mitochondrial dehydrogenase. In addition, as a control group, a wild-type colorectal cancer HCT116 (MTAP WT) cell line containing the MTAP gene was used to perform the experiment in the same manner as the experimental group.
(§2) Cell lines and reagents: HCT116 (MTAP WT (catalog number HD PAR-034), MTAP del (catalog number HD R02-033)) cell lines were purchased from Horizon Discovery (USA), and RPMI1640 medium (catalog number 22400-093), FBS (Fetal Bovine serum, catalog number 16000044), and Penicillin/Streptomycin (catalog number 15140-122) were purchased from GIBCO (USA). WST-1 (catalog number EZ-BULK150) was purchased from Dogen (Korea).
(§3) Experimental procedure: HCT116 (MTAP WT, MTAP del) cell lines were dispensed into a 96-well plate at a concentration of 1,000 cells/well in RPMI1640 culture medium containing 10% FBS and 1% Penicillin/Streptomycin, and allowed to attach for 24 hours. When the cells were attached to the plate, the drug was diluted 4-fold from a maximum concentration of 10 µM and treated on the cells. After 120 hours of drug treatment, 20 µL of WST-1 solution was treated for 2 hours, and absorbance at 450 nm was measured using SpectraMax M4 (Molecular Devices). Data analysis was calculated by taking the DMSO control group value as 100%. For the IC50 value, the concentration at which cell proliferation is inhibited by 50% was calculated through interpolation using a 4-parameter fit of the dose-response curve using the GraphPad Prism 8.4.3 program. The cancer cell proliferation inhibitory ability and selectivity in MTAP-deficient cancer cells of the compounds according to an embodiment of the present application are described in Table 3 (+++: 1 to 100 nM, ++: more than 100 to 1,000 nM, +: more than 1 to 10 µM, -: more than 10 µM).

[2] = tested on: HCT116 (MTAP WT) cell line; test: Cell proliferation inhibition in wild-type control cells, WST-1 assay; format: cell-based; conditions: Homo sapiens, HCT-116, 120 hours of drug treatment, maximum concentration 10 µM, read-out: HCT116 WT (IC50, cell proliferation inhibited by 50%)
Method: as §1, §2, §3

T1 sequence (P31153 whole entry): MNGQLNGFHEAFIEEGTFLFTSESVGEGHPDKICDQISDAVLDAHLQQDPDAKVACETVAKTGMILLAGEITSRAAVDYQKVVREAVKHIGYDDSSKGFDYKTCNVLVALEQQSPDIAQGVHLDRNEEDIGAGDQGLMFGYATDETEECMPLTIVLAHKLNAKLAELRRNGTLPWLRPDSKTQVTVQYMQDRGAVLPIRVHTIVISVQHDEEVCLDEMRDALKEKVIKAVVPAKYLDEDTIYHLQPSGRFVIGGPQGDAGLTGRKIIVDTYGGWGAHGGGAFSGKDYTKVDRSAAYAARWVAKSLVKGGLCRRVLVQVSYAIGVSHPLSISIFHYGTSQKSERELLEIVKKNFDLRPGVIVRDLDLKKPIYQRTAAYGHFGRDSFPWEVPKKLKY

| IC50 (MAT2A) [µM] | IC50 [1] [µM] | IC50 [2] [µM] | SMILES |
| --- | --- | --- | --- |
| 0.1 to 1 | 0.1 to 1 | > 10 | Cc1ccccc1-n1c(=O)c2nccn2c2ccc(C3CC3)cc21 [Example 16, 7-cyclopropyl-5-(o-tolyl)imidazo[1,2-a]quinoxalin-4(5H)-one] |
| 0.1 to 1 | 0.1 to 1 | > 10 | COc1ccc2c(c1)n(-c1ccccc1C)c(=O)c1nccn12 [Example 17, 7-methoxy-5-(o-tolyl)imidazo[1,2-a]quinoxalin-4(5H)-one] |
| 1 to 10 | 1 to 10 | > 10 | Cc1ccccc1-n1c(=O)c2nccn2c2ccc(C#N)cc21 [Example 18, 4-oxo-5-(o-tolyl)-4,5-dihydroimidazo[1,2-a]quinoxalin-7-carbonitrile] |
| 1 to 10 | 1 to 10 | > 10 | Cc1ccccc1-n1c(=O)c2nccn2c2ccc(OC(F)(F)F)cc21 [Example 19, 5-(o-tolyl)-7-(trifluoromethoxy)imidazo[1,2-a]quinoxalin-4(5H)-one] |
| 0.001 to 0.1 | 0.001 to 0.1 | > 10 | Cc1ccccc1-n1c(=O)c2nccn2c2ccc(C(F)F)cc21 [Example 22, 7-(difluoromethyl)-5-(o-tolyl)imidazo[1,2-a]quinoxalin-4(5H)-one] |
| 0.001 to 0.1 | 0.1 to 1 | > 10 | O=c1c2nccn2c2ccc(Cl)cc2n1-c1ccccc1Cl [Example 23, 7-chloro-5-(2-chlorophenyl)imidazo[1,2-a]quinoxalin-4(5H)-one] |
| 0.1 to 1 | > 10 | > 10 | CC(=O)c1ccc2c(c1)n(-c1ccccc1C)c(=O)c1nccn12 [Example 24, 7-acetyl-5-(o-tolyl)imidazo[1,2-a]quinoxalin-4(5H)-one] |
| 0.001 to 0.1 | 0.001 to 0.1 | 0.1 to 1 | Cc1ccccc1-n1c(=O)c2nccn2c2ccc(I)cc21 [Example 25, 7-Iodo-5-(o-tolyl)imidazo[1,2-a]quinoxalin-4(5H)-one] |
| 0.001 to 0.1 | 0.001 to 0.1 | > 10 | Cc1ccccc1-n1c(=O)c2nccn2c2ccc(C(F)(F)F)cc21 [Example 26, 5-(o-tolyl)-7-(trifluoromethyl)imidazo[1,2-a]quinoxalin-4(5H)-one] |
| 0.1 to 1 | 0.1 to 1 | > 10 | Cc1c(F)cccc1-n1c(=O)c2nccn2c2ccc(C#N)cc21 [Example 27, 5-(3-fluoro-2-methylphenyl)-4-oxo-4,5-dihydroimidazo[1,2-a]quinoxalin-7-carbonitrile] |
| > 10 | > 10 | > 10 | Cc1ccccc1-n1c(=O)c2nccn2c2ccc(OCC(F)(F)F)cc21 [Example 28, 5-(o-tolyl)-7-(2,2,2-trifluoroethoxy)imidazo[1,2-a]quinoxalin-4(5H)-one] |
| > 10 | > 10 | > 10 | CCOc1ccc2c(c1)n(-c1ccccc1C)c(=O)c1nccn12 [Example 30, 7-ethoxy-5-(o-tolyl)imidazo[1,2-a]quinoxalin-4(5H)-one] |
| 0.001 to 0.1 | 0.001 to 0.1 | 1 to 10 | Cc1ccccc1-n1c(=O)c2nccn2c2ccc(Br)cc21 [Example 32, 7-bromo-5-(o-tolyl)imidazo[1,2-a]quinoxalin-4(5H)-one] |
| 0.001 to 0.1 | 0.001 to 0.1 | 0.1 to 1 | Cc1ncccc1-n1c(=O)c2nccn2c2ccc(Cl)cc21 [Example 33, 7-chloro-5-(2-methylpyridin-3-yl)imidazo[1,2-a]quinoxalin-4(5H)-one] |
| 0.001 to 0.1 | 0.001 to 0.1 | 0.1 to 1 | Cc1ncccc1-n1c(=O)c2ncc(C)n2c2ccc(Cl)cc21 [Example 34, 7-chloro-1-methyl-5-(2-methylpyridin-3-yl)imidazo[1,2-a]quinoxalin-4(5H)-one] |
| 0.1 to 1 | 0.1 to 1 | > 10 | Cc1ccccc1-n1c(=O)c2nccn2c2ccc(Cl)nc21 [Example 35, 7-chloro-5-(o-tolyl)imidazo[1,2-a]pyrido[2,3-e]pyrazin-4(5H)-one] |
| 0.1 to 1 | 0.1 to 1 | > 10 | Cc1ccc2c(n1)n(-c1ccccc1C)c(=O)c1nccn12 [Example 36, 7-methyl-5-(o-tolyl)imidazo[1,2-a]pyrido[2,3-e]pyrazin-4(5H)-one] |
| 0.1 to 1 | 0.1 to 1 | > 10 | COc1ccccc1-n1c(=O)c2nccn2c2ccc(Cl)cc21 [Example 37, 7-chloro-5-(2-methoxyphenyl)imidazo[1,2-a]quinoxalin-4(5H)-one] |
| 0.1 to 1 | 0.001 to 0.1 | > 10 | O=c1c2nccn2c2ccc(Cl)cc2n1-c1ccccc1Br [Example 38, 5-(2-bromophenyl)-7-chloroimidazo[1,2-a]quinoxalin-4(5H)-one] |
| 0.1 to 1 | 0.1 to 1 | > 10 | Cc1cccc(-n2c(=O)c3nccn3c3ccc(Cl)cc32)c1 [Example 39, 7-chloro-5-(m-tolyl)imidazo[1,2-a]quinoxalin-4(5H)-one] |
| 0.1 to 1 | 0.1 to 1 | > 10 | O=c1c2nccn2c2ccc(Cl)cc2n1-c1cccc(F)c1 [Example 40, 7-chloro-5-(3-fluorophenyl)imidazo[1,2-a]quinoxalin-4(5H)-one] |
| 0.001 to 0.1 | 0.001 to 0.1 | 0.1 to 1 | Cc1cn2c(n1)c(=O)n(-c1cccnc1C)c1cc(Cl)ccc12 [Example 45, 7-chloro-2-methyl-5-(2-methylpyridin-3-yl)imidazo[1,2-a]quinoxalin-4(5H)-one] |
| 0.1 to 1 | 0.1 to 1 | > 10 | Cc1ccccc1-n1c(=O)c2nccn2c2ccc(C(F)F)nc21 [Example 46, 7-(difluoromethyl)-5-(o-tolyl)imidazo[1,2-a]pyrido[2,3-e]pyrazin-4(5H)-one] |
